In patent US11844801B2, “Oral compositions of MK2 pathway inhibitor for treatment of immune conditions” (priority 2020, dated 2023):
Values joined by “and” are separate entries in the source; they are usually repeats but may differ in a detail not shown here. Identical values can stand only once. Like-named read-outs stand apart in the source and are kept apart here.

Tests used:
IL-8 = test: Ex vivo LPS-stimulated IL-8 in blood of dosed healthy subjects, PK/PD inhibitory Emax model; design: species or system human
Experimental: Blood samples of 10 mL were collected for PD analysis. For the SAD cohorts, blood was collected before dosing and 1, 12, and 24 hours after dosing. For the MAD cohorts, on day 1 blood was collected before the morning dose and 4 and 12 hours after the morning dose (prior to the evening dose); on day 7, blood was collected before the morning dose and 4 and 12 hours after the morning dose.
Additional details of the assays for analyzing p-HSP27 and cytokines are included in the Supplementary Information.
Pharmacodynamics. PD data analysis was conducted using Microsoft Excel 2010 (Microsoft, Redmond, WA), Meso Scale Discovery Workbench® analysis software (Rockville, MD), and Phoenix WinNonlin, version 8.2.
Sample Preparation for Cytokine Analysis. For each sample, 180 μL aliquots were transferred into 7 wells of a round bottom 96 well tissue culture polystyrene low evaporation plate. […] No outer wells on the plates were used and all wells surrounding the samples contained 200 μL of phosphate buffered saline.
DMSO was added to all wells in groups ‘A’ and ‘C’ to a final concentration of 0.1% ([…] of a 2% DMSO solution in DMEM containing 10% FBS and 1% penicillin/streptomycin/glutamine). […] Samples were mixed gently for 30 seconds on a plate shaker using pin tools, then placed in an incubator at 37° C./5% CO2 for 1 hour.
Samples in groups ‘A’ and ‘B’ were stimulated with lipopolysaccharide at a final concentration of 100 ng/mL. A stock solution of lipopolysaccharide at 1 mg/mL in DMEM containing 10% FBS and 1% penicillin/streptomycin was diluted to […] in DMEM containing 10% FBS and 1% penicillin/streptomycin, and […] of this working solution was added per well of blood for all samples in groups ‘A’ and ‘B’. […] of DMEM containing 10% FBS only was added per well of blood for all samples in group ‘C’ (unstimulated samples). Samples were mixed gently for 30 seconds on a plate shaker using pin tools, then placed in an incubator at 37° C./5% CO2 for 5 hours.
Following the incubation, the plates were removed from the incubator and sealed with adhesive clear plate seals. The plates were then centrifuged for 10 minutes at 1800×g at room temperature. […] of plasma was removed from each well and transferred to a 96-well polypropylene round bottom master plate, which was then sealed and frozen at −80° C. until all samples from the respective cohort were generated. Once all samples from a given cohort were generated, the samples were analyzed for cytokine (TNF-α, IL-1b, IL-6, and IL-8) production using Meso Scale Discovery Technology.
Analysis of Cytokine Levels Using Meso Scale Discovery Technology. All lipopolysaccharide plasma samples were analyzed for cytokine production with a V-Plex Human Proinflammatory Panel II (4-Plex) Kit from Meso Scale Discovery (Rockville, MD). The master plates containing the plasma samples were thawed on ice, and a daughter plate consisting of a 25-fold dilution of each plasma sample (3 μL of plasma plus 72 μL of Meso Scale Discovery Diluent 2) was generated for each master plate. The diluted plasma samples from the daughter plates were used in the cytokine analysis. The Meso Scale Discovery 4-plex plates were washed 3 times with 150 μL/well of wash buffer (1×KPL phosphate buffered saline with Tween 20 from SeraCare [Milford, MA]). Prepared calibrators and the samples from the daughter plates were added to the washed Meso Scale Discovery 4-plex plates at 50 μL/well. The 4-plex plates were sealed and shaken overnight at 4° C.
After the overnight incubation, the samples were removed by decanting. The 4-plex plates were then washed 3 times with 150 μL/well of wash buffer. […]

IL-6 = test: LPS stimulated IL-6 production in human whole blood; format: cell-based
Experimental: Compounds were serially diluted in 100% DMSO (Sigma-Aldrich, D2650) followed by a 50× dilution into DMEM/10% FBS (Gibco, 11965/26140). Vehicle consisted of DMSO at a final assay concentration of 0.1%. Pin tools (V&P Scientific, Inc., VP246) were placed in the wells and the plate was placed at 37° C. with 5% CO2, with gently shaking for five minutes, then pin tools were removed and saved. […] Pin tools were placed in the wells in the same orientation as the previous step and gently shook for five minutes at 37° C. with 5% CO2, then removed. […] The plasma was harvested and assayed for TNF-α, IL-1β, and IL-6 using Meso Scale Discovery Technology V-plex human cytokine kits according to the kit protocol. The kit plates were read using an MSD Sector S 6000 instrument. Calculations to establish cytokine calibration curves and to determine analyte concentrations in the samples were carried out using the MSD DISCOVERY WORKBENCH® analysis software.

[1] = Phase 1 SAD/MAD safety and tolerability in healthy subjects (incl. 80/120 mg BID extension)
Experimental: Single ascending dose (SAD) cohorts.
Multiple ascending dose (MAD) cohorts. […] Subjects were admitted to the clinical facility on day −1 and remained at the site until 72 hours after the morning dose on day 7.
Safety and Tolerability Assessments. Adverse events, clinical laboratory tests, vital signs, an electrocardiogram, Holter monitoring, and physical examination results were evaluated for each subject in both parts of the study.
Methods: Safety, pharmacokinetics (PK) and pharmacodynamics (PD) were assessed in two cohorts of subjects in a randomized, observer-blind, placebo-controlled study in male and female healthy subjects aged 18-55 (n=77). The study consisted of twenty (20) subjects enrolled into 2 cohorts. […] The final dose was administered in the morning on Day 7. Blood samples were obtained Day 1—before dosing, Day 1—4 hours after dosing and Day 1—12 hours after dosing and Day 7—before dosing, Day 7—4 hours after dosing, day 7—12 hour after dosing and Day 7—24 hours after dosing for each subject.

[2] = all ATI-450 SAD and MAD cohorts, 3/48
[3] = all ATI-450 SAD and MAD cohorts, n = 48

Cc1cnc(-c2ccnc(C(C)(C)O)n2)cc1-n1c(C)cc(OCc2ncc(F)cc2F)c(Cl)c1=O (single isomer, unassigned) [ATI-450, 3-chloro-4-((3,5-difluoropyridin-2-yl)methoxy)-2′-(2-(2-hydroxypropan-2-yl)pyrimidin-4-yl)-5′,6-dimethyl-2H-[1,4′-bipyridin]-2-one]
Cmax (Multiple of IC80) (IL-8; 50 mg BID, day 7): 5.6x
Ctrough (Multiple of IC80) (IL-8; 50 mg BID, day 7): 2.3x
IC80 (IL-8; Homo sapiens, calculated from IC50, combined SAD and MAD data, read-out: IC80, plasma concentration at 80% of maximal inhibition): 0.0388 µg/mL
IC50 (IL-8; Homo sapiens, inhibitory Emax model, combined SAD and MAD data, read-out: IC50, plasma concentration at half maximal inhibition): 0.0097 µg/mL
IC80, plasma concentration at 80% of maximal inhibition (IL-8; calculated from IC50, combined SAD and MAD data): 0.0388 µg/mL
Imax, maximum percent inhibition (IL-8; inhibitory Emax model): 57% and 57.1%
IC50 (IL-6; Human Whole Blood, LPS, 100 ng/mL, 4 or 24 hr, read-out: IC50, IL-6): 135 ± 97 nM
IC50 (IL-6; human whole blood, LPS 100 ng/mL, read-out: IC50, LPS-stimulated IL-6): 10 to 100 nM
subjects with TEAEs considered related to the study drug ([1]; 10 mg BID cohort, 1 of 8): 13%
subjects with TEAEs considered related to the study drug ([1]; 30 mg BID cohort, 5 of 8): 63%
subjects with TEAEs considered related to the study drug ([1]; 50 mg BID cohort, 3 of 8): 38%
neutrophils ([1]; 50 mg BID, day 7 (baseline 3318.4 cells/μL)): 2514.4 cells/μL
mean reduction in neutrophils ([1]; 50 mg BID, day 7 vs baseline): 24%
Constipation, AE, n (%) ([1]; 80 mg BID, 7 days, n = 8): 1 (14%)
Dizziness, AE, n (%) ([1]; 80 mg BID, 7 days, n = 8): 2 (25%)
Headache, AE, n (%) ([1]; 80 mg BID, 7 days, n = 8): 2 (25%)
Xerosis, AE, n (%) ([1]; 80 mg BID, 7 days, n = 8): 1 (13%)
tolerability ([1]; 80 mg and 120 mg BID, 7 days): well tolerated with no severe adverse effects reported
Abdominal Pain, AE, n (%) ([1]; 120 mg BID, 7 days, n = 8): 1 (13%)
Dizziness, AE, n (%) ([1]; 120 mg BID, 7 days, n = 8): 6 (75%)
Headache, AE, n (%) ([1]; 120 mg BID, 7 days, n = 8): 7 (88%)
Loose stools, AE, n (%) ([1]; 120 mg BID, 7 days, n = 8): 1 (13%)
Nausea, AE, n (%) ([1]; 120 mg BID, 7 days, n = 8): 2 (25%)
Parasthesia, AE, n (%) ([1]; 120 mg BID, 7 days, n = 8): 2 (25%)
Pharyngitis, AE, n (%) ([1]; 120 mg BID, 7 days, n = 8): 1 (13%)
Xerosis, AE, n (%) ([1]; 120 mg BID, 7 days, n = 8): 5 (63%)
neutrophils, laboratory change ([1]; MAD cohort, maximum effect Day 2 to Day 5): dose dependent reduction in neutrophils
character of TEAEs ([1]; MAD cohorts 10-50 mg BID): mild, transient, and resolved without sequelae
deaths, serious adverse events ([1]; MAD cohorts 10-50 mg BID): no deaths or SAEs
subjects with TEAEs considered related to the study drug ([1]; MAD cohorts 10-50 mg BID, 9 of 24): 38%
subjects reporting TEAEs ([1]; MAD cohorts 10-50 mg BID, 12 of 24): 50%
vital signs, electrocardiograms, clinical laboratory values ([1]; SAD and MAD cohorts): No clinically significant findings
character of TEAEs ([1]; SAD cohorts): mild, transient, and resolved without sequelae
deaths, serious adverse events, discontinuations ([1]; SAD cohorts): No deaths or serious adverse events (SAEs)
subjects with TEAEs considered related to the study drug ([1]; SAD cohorts, 4 of 24): 17%
subjects reporting TEAEs ([1]; SAD cohorts, 7 of 24): 29%
constipation, subjects with adverse event [1, 2]: 6.3%
upper respiratory tract infection, subjects with adverse event [1, 2]: 6.3%
dizziness, subjects with adverse event ([1]; all ATI-450 SAD and MAD cohorts, 6/48): 12.5%
Abdominal pain, treatment-emergent adverse event, n subjects [1, 3]: 2
Constipation, treatment-emergent adverse event, n subjects [1, 3]: 3
Dizziness, treatment-emergent adverse event, n subjects [1, 3]: 6
Headache, treatment-emergent adverse event, n subjects [1, 3]: 10
Nausea, treatment-emergent adverse event, n subjects [1, 3]: 2
Upper respiratory tract infection, treatment-emergent adverse event, n subjects [1, 3]: 3
Vomiting, treatment-emergent adverse event, n subjects [1, 3]: 0
subjects with TEAEs considered related to the study drug ([1]; single dose 10 mg cohort): 0 subjects
subjects with TEAEs considered related to the study drug ([1]; single dose 30 mg cohort): 33%
subjects with TEAEs considered related to the study drug ([1]; single dose 50 mg cohort): 17%
subjects with TEAEs considered related to the study drug ([1]; single dose 100 mg cohort): 1 subject
safety and tolerability ([1]; single doses up to 100 mg, multiple doses up to 50 mg BID for 7 days): generally safe and well tolerated
